According to PMC10009787 (ACS Medicinal Chemistry Letters, 2023):
Like-named read-outs stand apart in the source and are kept apart here.

Tests used:
LYN A = LYN A (Homo sapiens, UniProt P07948); assay: SelectScreen kinase profiling; type: biochemical; settings: average of duplicate
ERBB2 (HER2) = ERBB2 (HER2) (Homo sapiens, UniProt P04626); assay: SelectScreen kinase profiling; type: biochemical; settings: average of duplicate
TTK = TTK (Homo sapiens, UniProt P33981); assay: SelectScreen kinase profiling; type: biochemical; settings: average of duplicate
ERN1 = ERN1 (Homo sapiens, UniProt O75460); assay: SelectScreen kinase profiling; type: biochemical; settings: average of duplicate
Chain of ERN1 (O75460 19-977): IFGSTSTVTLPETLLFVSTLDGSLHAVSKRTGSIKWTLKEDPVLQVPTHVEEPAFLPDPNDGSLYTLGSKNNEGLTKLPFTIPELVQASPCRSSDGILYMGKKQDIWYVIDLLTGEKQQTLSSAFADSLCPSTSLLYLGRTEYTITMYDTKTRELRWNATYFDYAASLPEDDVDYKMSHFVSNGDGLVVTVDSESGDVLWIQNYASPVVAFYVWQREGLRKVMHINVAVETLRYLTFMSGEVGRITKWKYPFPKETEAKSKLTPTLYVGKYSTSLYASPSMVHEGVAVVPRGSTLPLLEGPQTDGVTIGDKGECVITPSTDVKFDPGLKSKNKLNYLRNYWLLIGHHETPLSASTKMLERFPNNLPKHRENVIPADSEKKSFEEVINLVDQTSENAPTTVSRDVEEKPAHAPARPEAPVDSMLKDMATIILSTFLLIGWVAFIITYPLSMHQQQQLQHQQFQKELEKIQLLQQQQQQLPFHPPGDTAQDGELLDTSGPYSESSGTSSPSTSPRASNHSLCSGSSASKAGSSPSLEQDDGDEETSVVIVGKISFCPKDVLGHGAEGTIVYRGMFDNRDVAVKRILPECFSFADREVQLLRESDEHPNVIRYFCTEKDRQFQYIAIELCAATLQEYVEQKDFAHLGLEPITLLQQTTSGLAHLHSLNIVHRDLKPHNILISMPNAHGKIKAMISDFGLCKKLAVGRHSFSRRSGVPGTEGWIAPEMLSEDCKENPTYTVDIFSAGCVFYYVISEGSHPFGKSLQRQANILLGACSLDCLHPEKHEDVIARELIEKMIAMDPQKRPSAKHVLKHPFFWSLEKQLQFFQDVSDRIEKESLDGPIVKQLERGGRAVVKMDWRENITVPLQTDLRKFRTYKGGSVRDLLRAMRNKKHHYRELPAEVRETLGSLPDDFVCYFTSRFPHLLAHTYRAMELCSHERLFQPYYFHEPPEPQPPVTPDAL

HCK = HCK (Homo sapiens, UniProt P08631); assay: AssayQuant kinact/Ki profiling, PhosphoSens CSox-based kinetic assay
Chain of HCK (P08631 whole entry): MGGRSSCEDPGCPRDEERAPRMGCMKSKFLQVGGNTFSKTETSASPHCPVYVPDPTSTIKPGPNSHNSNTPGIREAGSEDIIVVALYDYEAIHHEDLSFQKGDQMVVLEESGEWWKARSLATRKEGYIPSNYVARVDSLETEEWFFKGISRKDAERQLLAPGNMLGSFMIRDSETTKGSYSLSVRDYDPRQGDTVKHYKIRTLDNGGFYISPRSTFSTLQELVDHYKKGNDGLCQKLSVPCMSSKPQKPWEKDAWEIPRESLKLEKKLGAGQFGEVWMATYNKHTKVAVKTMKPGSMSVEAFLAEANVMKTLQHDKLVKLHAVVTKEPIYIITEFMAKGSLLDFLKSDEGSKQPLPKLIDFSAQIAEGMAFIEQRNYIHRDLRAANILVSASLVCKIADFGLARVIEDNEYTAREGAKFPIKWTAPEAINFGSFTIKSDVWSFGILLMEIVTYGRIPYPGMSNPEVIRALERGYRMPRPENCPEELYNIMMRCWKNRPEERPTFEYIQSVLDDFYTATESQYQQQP

BTK = BTK (Homo sapiens, UniProt Q06187); assay: Western blot, phosphorylation of BTK in Jeko-1 cells; type: cell-based; settings: 2 h
Chain of BTK (Q06187 whole entry): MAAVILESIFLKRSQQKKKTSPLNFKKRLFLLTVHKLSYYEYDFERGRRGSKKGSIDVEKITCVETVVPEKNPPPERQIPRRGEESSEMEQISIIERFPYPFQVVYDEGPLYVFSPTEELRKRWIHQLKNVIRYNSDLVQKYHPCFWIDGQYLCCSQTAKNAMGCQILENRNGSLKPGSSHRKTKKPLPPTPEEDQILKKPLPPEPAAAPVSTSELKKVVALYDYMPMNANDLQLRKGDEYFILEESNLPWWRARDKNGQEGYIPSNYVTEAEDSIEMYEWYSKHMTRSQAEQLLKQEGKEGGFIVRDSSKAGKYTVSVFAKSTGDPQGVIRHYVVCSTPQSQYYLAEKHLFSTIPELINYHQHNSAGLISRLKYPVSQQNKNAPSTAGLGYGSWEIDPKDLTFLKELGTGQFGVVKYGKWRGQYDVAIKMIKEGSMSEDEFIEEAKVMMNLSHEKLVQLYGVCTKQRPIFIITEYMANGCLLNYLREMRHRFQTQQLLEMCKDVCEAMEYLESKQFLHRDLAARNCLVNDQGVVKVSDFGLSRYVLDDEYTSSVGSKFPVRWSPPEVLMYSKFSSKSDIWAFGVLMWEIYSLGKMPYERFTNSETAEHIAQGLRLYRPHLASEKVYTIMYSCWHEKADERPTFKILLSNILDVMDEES

PDGFRB (PDGFR beta) = PDGFRB (PDGFR beta) (Homo sapiens, UniProt P09619); assay: SelectScreen kinase profiling; type: biochemical; settings: average of duplicate
Chain of PDGFRB (PDGFR beta) (P09619 33-1106): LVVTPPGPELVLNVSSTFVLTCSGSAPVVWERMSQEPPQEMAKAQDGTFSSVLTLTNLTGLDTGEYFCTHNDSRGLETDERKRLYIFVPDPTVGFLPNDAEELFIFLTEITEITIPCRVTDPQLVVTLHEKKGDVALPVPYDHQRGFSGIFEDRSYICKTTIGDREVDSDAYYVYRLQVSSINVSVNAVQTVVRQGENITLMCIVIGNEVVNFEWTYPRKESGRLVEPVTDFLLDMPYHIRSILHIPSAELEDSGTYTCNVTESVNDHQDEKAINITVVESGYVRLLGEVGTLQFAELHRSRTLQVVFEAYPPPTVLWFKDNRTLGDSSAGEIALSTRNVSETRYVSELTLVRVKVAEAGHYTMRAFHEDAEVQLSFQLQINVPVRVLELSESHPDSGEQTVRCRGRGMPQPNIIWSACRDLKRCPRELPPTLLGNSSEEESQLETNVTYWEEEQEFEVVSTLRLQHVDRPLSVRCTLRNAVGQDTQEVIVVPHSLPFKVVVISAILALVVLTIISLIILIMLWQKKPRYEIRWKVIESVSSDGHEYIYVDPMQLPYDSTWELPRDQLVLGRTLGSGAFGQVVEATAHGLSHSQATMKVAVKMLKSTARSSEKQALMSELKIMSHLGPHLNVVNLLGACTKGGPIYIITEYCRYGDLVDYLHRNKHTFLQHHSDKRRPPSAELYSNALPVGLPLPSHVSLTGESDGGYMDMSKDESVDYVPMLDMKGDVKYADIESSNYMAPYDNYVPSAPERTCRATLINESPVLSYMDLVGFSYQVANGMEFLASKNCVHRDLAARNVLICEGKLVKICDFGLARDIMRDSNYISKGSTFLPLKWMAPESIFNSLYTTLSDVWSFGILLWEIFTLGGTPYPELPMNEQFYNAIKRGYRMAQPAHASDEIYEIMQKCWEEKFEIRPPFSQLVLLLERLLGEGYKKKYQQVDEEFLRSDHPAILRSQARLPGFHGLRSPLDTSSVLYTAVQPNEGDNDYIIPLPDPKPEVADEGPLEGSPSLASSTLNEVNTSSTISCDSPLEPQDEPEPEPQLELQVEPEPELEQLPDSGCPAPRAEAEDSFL

TXK = TXK (Homo sapiens, UniProt P42681); assay: SelectScreen kinase profiling; type: biochemical; settings: average of duplicate
EGFR (ErbB1) = EGFR (ErbB1) (Homo sapiens, UniProt P00533); assay: SelectScreen kinase profiling / Z′-Lyte kinase assay
Chain of EGFR (ErbB1) (P00533 668-1210 limits assumed): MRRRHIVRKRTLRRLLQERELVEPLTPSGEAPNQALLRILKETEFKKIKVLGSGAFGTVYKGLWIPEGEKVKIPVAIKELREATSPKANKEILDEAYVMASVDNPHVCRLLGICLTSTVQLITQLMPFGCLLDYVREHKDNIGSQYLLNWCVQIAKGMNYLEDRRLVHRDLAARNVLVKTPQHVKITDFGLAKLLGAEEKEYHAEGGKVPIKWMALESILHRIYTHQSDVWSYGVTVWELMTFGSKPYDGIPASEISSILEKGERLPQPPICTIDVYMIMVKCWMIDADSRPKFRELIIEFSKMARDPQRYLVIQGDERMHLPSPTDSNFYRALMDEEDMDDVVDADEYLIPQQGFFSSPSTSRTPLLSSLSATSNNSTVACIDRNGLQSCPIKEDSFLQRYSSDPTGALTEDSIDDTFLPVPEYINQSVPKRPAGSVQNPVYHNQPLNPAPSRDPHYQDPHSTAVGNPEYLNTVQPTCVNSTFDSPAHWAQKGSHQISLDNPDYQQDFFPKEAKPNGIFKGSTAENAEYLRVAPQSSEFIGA

RIPK2 = RIPK2 (Homo sapiens, UniProt O43353); assay: SelectScreen kinase profiling; type: biochemical; settings: average of duplicate
KIT V559D = KIT V559D (Homo sapiens, UniProt P10721, V559D); assay: SelectScreen kinase profiling; type: biochemical; settings: average of duplicate
PDGFRA (PDGFR alpha) = PDGFRA (PDGFR alpha) (Homo sapiens, UniProt P16234); assay: SelectScreen kinase profiling; type: biochemical; settings: average of duplicate
MAP2K5 (MEK5) = MAP2K5 (MEK5) (Homo sapiens, UniProt Q13163); assay: SelectScreen kinase profiling; type: biochemical; settings: average of duplicate
TEC = TEC (Homo sapiens, UniProt P42680); assay: SelectScreen kinase profiling; type: biochemical; settings: average of duplicate
JAK3 = JAK3 (Homo sapiens, UniProt P52333); assay: SelectScreen kinase profiling / Z′-Lyte kinase assay
Chain of JAK3 (P52333 781-1124 limits assumed): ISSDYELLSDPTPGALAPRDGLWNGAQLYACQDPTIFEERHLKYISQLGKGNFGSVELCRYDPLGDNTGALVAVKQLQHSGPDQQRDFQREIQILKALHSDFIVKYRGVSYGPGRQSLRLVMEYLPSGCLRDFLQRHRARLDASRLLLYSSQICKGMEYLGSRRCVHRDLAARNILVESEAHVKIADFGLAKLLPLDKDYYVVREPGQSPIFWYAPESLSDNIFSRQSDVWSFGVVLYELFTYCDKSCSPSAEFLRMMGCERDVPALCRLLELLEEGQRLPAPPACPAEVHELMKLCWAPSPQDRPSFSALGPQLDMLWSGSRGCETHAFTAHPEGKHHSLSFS

BMX = target: T1, BMX (Homo sapiens, UniProt P51813); assay: AssayQuant kinact/Ki profiling, PhosphoSens CSox-based kinetic assay; type: biochemical; parameters: purchased ThermoFisher / Life Technologies SelectScreen PV3371
T1 sequence (P51813 1-675): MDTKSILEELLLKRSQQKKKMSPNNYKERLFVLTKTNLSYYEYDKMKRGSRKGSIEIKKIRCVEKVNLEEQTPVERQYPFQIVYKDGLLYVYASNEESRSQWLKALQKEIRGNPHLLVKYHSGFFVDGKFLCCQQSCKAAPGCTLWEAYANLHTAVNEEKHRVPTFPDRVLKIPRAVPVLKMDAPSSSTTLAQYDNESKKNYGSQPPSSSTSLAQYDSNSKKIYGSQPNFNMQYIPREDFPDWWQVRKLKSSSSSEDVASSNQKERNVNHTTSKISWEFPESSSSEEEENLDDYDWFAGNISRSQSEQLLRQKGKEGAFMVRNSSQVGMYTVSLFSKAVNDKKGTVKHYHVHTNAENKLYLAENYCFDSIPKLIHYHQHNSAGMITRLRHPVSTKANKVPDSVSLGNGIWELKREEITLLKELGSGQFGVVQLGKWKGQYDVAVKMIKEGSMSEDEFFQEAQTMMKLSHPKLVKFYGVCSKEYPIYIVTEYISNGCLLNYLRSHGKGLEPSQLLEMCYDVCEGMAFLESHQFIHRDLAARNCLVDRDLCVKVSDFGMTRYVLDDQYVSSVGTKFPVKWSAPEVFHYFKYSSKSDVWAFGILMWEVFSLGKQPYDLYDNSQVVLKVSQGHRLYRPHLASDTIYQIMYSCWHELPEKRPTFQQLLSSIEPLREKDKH

[1] = BTK selectivity from IC50 values
[2] = Z′-Lyte, [ATP] Km app, 1 h incubation, duplicate

Chain of LYN A (P07948 whole entry): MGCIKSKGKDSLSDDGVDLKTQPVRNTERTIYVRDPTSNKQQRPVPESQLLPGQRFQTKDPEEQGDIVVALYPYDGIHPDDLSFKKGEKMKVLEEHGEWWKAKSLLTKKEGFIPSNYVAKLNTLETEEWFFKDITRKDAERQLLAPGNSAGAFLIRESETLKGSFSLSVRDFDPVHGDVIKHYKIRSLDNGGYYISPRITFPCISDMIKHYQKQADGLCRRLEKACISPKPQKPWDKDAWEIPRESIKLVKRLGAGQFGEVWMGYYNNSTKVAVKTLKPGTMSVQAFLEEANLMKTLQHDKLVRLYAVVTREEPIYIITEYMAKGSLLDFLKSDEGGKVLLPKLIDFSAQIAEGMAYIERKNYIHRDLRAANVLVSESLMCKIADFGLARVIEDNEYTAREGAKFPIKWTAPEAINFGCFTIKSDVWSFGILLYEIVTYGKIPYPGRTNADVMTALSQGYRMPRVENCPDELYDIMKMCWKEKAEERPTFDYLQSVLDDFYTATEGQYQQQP

inhibition at 1 µM (LYN A): 13% | inhibition at 1 µM (ERBB2 (HER2)): 2% | inhibition at 1 µM (TTK): -7% | inhibition at 1 µM (ERN1): 2% | kinact (HCK; read-out: HCK kinact): 0.0001 s⁻¹ | kinact/KI (HCK; read-out: HCK kinact/KI): 5960 M⁻¹ s⁻¹ | pBTK/BTK ratio normalized to the DMSO control (BTK; 1 uM): 0.37 | pBTK/BTK ratio normalized to the DMSO control (BTK; 10 uM): 0.31 | pBTK/BTK ratio normalized to the DMSO control (BTK; .01 uM): 0.47 | pBTK/BTK ratio normalized to the DMSO control (BTK; .1 uM): 0.36 | inhibition at 1 µM (PDGFRB (PDGFR beta)): 0% | inhibition at 1 µM (TXK): 94% | IC50 (EGFR (ErbB1)): > 10 µM | inhibition at 1 µM (EGFR (ErbB1)): 0% | EGFR, BTK/Kinase (EGFR (ErbB1); [1]): > 781 x | Hillslope (EGFR (ErbB1); EGFR IC50 curve): 0.96 | EGFR IC50 (EGFR (ErbB1); [2]): no observable activities | inhibition at 0.000495 µM (EGFR (ErbB1); read-out: % Inhibition Point 1): -4% | inhibition at 0.00152 µM (EGFR (ErbB1); read-out: % Inhibition Point 1): -1% | inhibition at 0.00457 µM (EGFR (ErbB1); read-out: % Inhibition Point 1): -2% | inhibition at 0.0137 µM (EGFR (ErbB1); read-out: % Inhibition Point 1): -1% | inhibition at 0.0412 µM (EGFR (ErbB1); read-out: % Inhibition Point 1): -6% | inhibition at 0.123 µM (EGFR (ErbB1); read-out: % Inhibition Point 1): 1% | inhibition at 0.37 µM (EGFR (ErbB1); read-out: % Inhibition Point 1): 5% | inhibition at 1.11 µM (EGFR (ErbB1); read-out: % Inhibition Point 1): 10% | inhibition at 3.33 µM (EGFR (ErbB1); read-out: % Inhibition Point 1): 20% | inhibition at 10 µM (EGFR (ErbB1); read-out: % Inhibition Point 1): 41% | inhibition at 0.000495 µM (EGFR (ErbB1); read-out: % Inhibition Point 2): 3% | inhibition at 0.00152 µM (EGFR (ErbB1); read-out: % Inhibition Point 2): -2% | inhibition at 0.00457 µM (EGFR (ErbB1); read-out: % Inhibition Point 2): 1% | inhibition at 0.0137 µM (EGFR (ErbB1); read-out: % Inhibition Point 2): 0% | inhibition at 0.0412 µM (EGFR (ErbB1); read-out: % Inhibition Point 2): -3% | inhibition at 0.123 µM (EGFR (ErbB1); read-out: % Inhibition Point 2): -2% | inhibition at 0.37 µM (EGFR (ErbB1); read-out: % Inhibition Point 2): 1% | inhibition at 1.11 µM (EGFR (ErbB1); read-out: % Inhibition Point 2): 5% | inhibition at 3.33 µM (EGFR (ErbB1); read-out: % Inhibition Point 2): 22% | inhibition at 10 µM (EGFR (ErbB1); read-out: % Inhibition Point 2): 45% | inhibition at 1 µM (RIPK2): 29% | inhibition at 1 µM (KIT V559D): 1% | inhibition at 1 µM (PDGFRA (PDGFR alpha)): 3% | inhibition at 1 µM (MAP2K5 (MEK5)): 10% | inhibition at 1 µM (TEC): 91% | IC50 (JAK3): > 10 µM | inhibition at 1 µM (JAK3): -7% | JAK3, BTK/Kinase (JAK3; [1]): > 781 x | Hillslope (JAK3; JAK3 IC50 curve): 0.86 | JAK3 IC50 (JAK3; [2]): no observable activities | inhibition at 0.000495 µM (JAK3; read-out: % Inhibition Point 1): 4% | inhibition at 0.00152 µM (JAK3; read-out: % Inhibition Point 1): -1% | inhibition at 0.00457 µM (JAK3; read-out: % Inhibition Point 1): 2% | inhibition at 0.0137 µM (JAK3; read-out: % Inhibition Point 1): 1% | inhibition at 0.0412 µM (JAK3; read-out: % Inhibition Point 1): 1% | inhibition at 0.123 µM (JAK3; read-out: % Inhibition Point 1): 2% | inhibition at 0.37 µM (JAK3; read-out: % Inhibition Point 1): 3% | inhibition at 1.11 µM (JAK3; read-out: % Inhibition Point 1): 6% | inhibition at 3.33 µM (JAK3; read-out: % Inhibition Point 1): 17% | inhibition at 10 µM (JAK3; read-out: % Inhibition Point 1): 32% | inhibition at 0.000495 µM (JAK3; read-out: % Inhibition Point 2): 1% | inhibition at 0.00152 µM (JAK3; read-out: % Inhibition Point 2): -1% | inhibition at 0.00457 µM (JAK3; read-out: % Inhibition Point 2): -1% | inhibition at 0.0137 µM (JAK3; read-out: % Inhibition Point 2): 1% | inhibition at 0.0412 µM (JAK3; read-out: % Inhibition Point 2): 3% | inhibition at 0.123 µM (JAK3; read-out: % Inhibition Point 2): 4% | inhibition at 0.37 µM (JAK3; read-out: % Inhibition Point 2): 0% | inhibition at 1.11 µM (JAK3; read-out: % Inhibition Point 2): 11% | inhibition at 3.33 µM (JAK3; read-out: % Inhibition Point 2): 14% | inhibition at 10 µM (JAK3; read-out: % Inhibition Point 2): 32% | kinact/KI (BMX; 5.0 nM enzyme, 1000 µM ATP, two step fit): 65000 M⁻¹ s⁻¹ | BMX kinact/Ki (BMX; 5.0 nM enzyme, 1000 µM ATP, two step fit, listed as Dimethyl Analog): 64,800 M^-1S^-1 | kinact (BMX; fitted value, two step): 0.0053 s⁻¹
Structure (SMILES): C=CC(=O)N1CCCC(n2nc(-c3c(C)cc(Oc4ccccc4)cc3C)c3c(N)ncnc32)C1 (stereo in doubt) [Compound 3]
